Measurements from patent US20260258044A1, “PIPERIDINYL-METHYL-PURINE AMINE FUMARIC ACID SALTS, CRYSTALLINE FORMS, AND THEIR USE IN TREATING MEDICAL DISEASES AND CONDITIONS” (K36 Therapeutics, Inc., priority 2022, published 2026).
“Also recorded” adds a separate entry of the source.

Tests used:
Type in all cases: physicochemical
[1] = accelerated stability study (HPLC and XRPD of recovered salts); conditions: for HPLC Purity (Area %) After Study / XRPD After Study: after one week at 75% relative humidity, 40° C.; for HPLC Purity (Area %) Before Study: before storage
Procedure: An accelerated stability study was conducted on crystalline Form 1 (prepared according to Procedure 2 of Example 1), Form 2, Form 3 (prepared according to Procedure 1 of Example 3), and Form 4 of (S)-1-((R)-3-amino-1-(4-((6-amino-9H-purin-9-yl)methyl)-6-(2,5-difluoro-4-methoxyphenyl) pyridin-3-yl)piperidin-3-yl)-2,2-difluoroethan-1-ol fumaric acid salt. Approximately 12 mg of each solid was placed into separate 4-mL vials, and then the vials were covered with a Kimwipe. The vials were stored for one week inside a stability chamber producing a relative humidity of 75% at 40° C.

[2] = hygroscopicity by dynamic vapor sorption; conditions: transitioned from 2% to 95% relative humidity
Procedure: Dynamic vapor sorption was performed using a Q5000SA. The sample (5-15 mg) was loaded into a metallic quartz sample pan, suspended from a microbalance, and exposed to a humidified stream of nitrogen gas. Weight changes were relative to a matching empty reference pan opposite the sample, suspended from the microbalance. The sample was held for a minimum of 10 min at each humidity level and only progressed to the next humidity level if there was <0.002% change in weight between measurements (interval: 5 s) or 60 min had elapsed. The following program was used: • 1. Equilibration at 50% RH • 2. 50% to 2% RH (50%, 40%, 30%, 20%, 10%, and 2% RH) • 3. 2% to 95% RH (2%, 10%, 20%, 30%, 40%, 50%, 60%, 70%, 80%, 90%, and 95% RH) • 4. 95% to 2% RH (95%, 80%, 70%, 60%, 50%, 40%, 30%, 20%, 10%, and 2% RH) • 5. 2% to 50% RH (2%, 10%, 20%, 30%, 40%, and 50% RH).

[3] = water solubility of the crystalline solid; conditions: 37° C.

Compound	HPLC Purity (Area %) After Study [1]	XRPD After Study [1]	HPLC Purity (Area %) Before Study [1]	increase in weight [2]	water solubility ([3]; after 30 minutes)	water solubility ([3]; after 24 hours)	increase in weight as molar equivalents of water [2]
COc1cc(F)c(-c2cc(Cn3cnc4c(N)ncnc43)c(N3CCC[C@](N)([C@H](O)C(F)F)C3)cn2)cc1F.O=C(O)/C=C/C(=O)O [Form 1, (S)-1-((R)-3-amino-1-(4-((6-amino-9H-purin-9-yl)methyl)-6-(2,5-difluoro-4-methoxyphenyl)pyridin-3-yl)piperidin-3-yl)-2,2-difluoroethan-1-ol Fumaric Acid Salt]	99.52 Area %	No change; also recorded: Unchanged	99.50 Area %	1.5%	300 µg/mL	1400 µg/mL	–
COc1cc(F)c(-c2cc(Cn3cnc4c(N)ncnc43)c(N3CCC[C@](N)([C@H](O)C(F)F)C3)cn2)cc1F.O=C(O)/C=C/C(=O)O [Form 2, (S)-1-((R)-3-amino-1-(4-((6-amino-9H-purin-9-yl)methyl)-6-(2,5-difluoro-4-methoxyphenyl)pyridin-3-yl)piperidin-3-yl)-2,2-difluoroethan-1-ol Fumaric Acid Salt]	99.49 Area %	Slight shifting of peaks at higher diffraction angles (2θ); also recorded: Slight Shifting of Certain	99.51 Area %	–	2200 µg/mL	1100 µg/mL	–
COc1cc(F)c(-c2cc(Cn3cnc4c(N)ncnc43)c(N3CCC[C@](N)([C@H](O)C(F)F)C3)cn2)cc1F.O=C(O)/C=C/C(=O)O [Form 3, (S)-1-((R)-3-amino-1-(4-((6-amino-9H-purin-9-yl)methyl)-6-(2,5-difluoro-4-methoxyphenyl)pyridin-3-yl)piperidin-3-yl)-2,2-difluoroethan-1-ol Fumaric Acid Salt]	99.56 Area %	Increased crystallinity; also recorded: Higher Crystallinity	99.58 Area %	5.1%	800 µg/mL	700 µg/mL	approximately 1.8 molar equivalents
COc1cc(F)c(-c2cc(Cn3cnc4c(N)ncnc43)c(N3CCC[C@](N)([C@H](O)C(F)F)C3)cn2)cc1F.O=C(O)/C=C/C(=O)O [Form 4, (S)-1-((R)-3-amino-1-(4-((6-amino-9H-purin-9-yl)methyl)-6-(2,5-difluoro-4-methoxyphenyl)pyridin-3-yl)piperidin-3-yl)-2,2-difluoroethan-1-ol Fumaric Acid Salt]	99.59 Area %	Conversion to Form 3	99.56 Area %	5.5%	700 µg/mL	600 µg/mL	approximately 2.0 molar equivalents
